The text below walks through data of PMC7696755 (2020).

Molecules are shown by their SMILES.

The test system of assay [1] is AT-DNA (DNA, duplex) TATATATATATATATATATATATATATATATATATATATA
Description: UV/Vis absorption titration (302 nm, hypochromism). The following applies: 137 mM NaCl, 2.7 mM KCl, PBS (10 mM phosphate), pH 7.4, room temperature, per base pair, 15 µM 8-MOP, intercalation, before irradiation.

The test system is the same in assay [2]. Nature of the assay: UV/Vis absorption titration (hypochromism). The following applies: 137 mM NaCl, 2.7 mM KCl, PBS (10 mM phosphate), pH 7.4, room temperature, per base pair, intercalation, data not shown.

As a reminder, the KD is the equilibrium constant for the complex coming apart. A lower KD goes with tighter binding. As to `COc1c2occc2cc2ccc(=O)oc12`, the KD in assay [1] turned out to be 1100 µM. For the molecule `COc1c2ccoc2cc2oc(=O)ccc12`, the KD in assay [2] was 180 µM.
